Test results as given in patent US20260000763A1, “Methods of Manufacturing Therapeutic Cells” (The Board of Trustees of the Leland Stanford Junior …, priority 2022, published 2026).
Entries after “also recorded” stand apart in the source; their conditions may differ.

Tests used:
Nalm6 tumor line = assay: Co-culture of CD19.28 CAR T cells with Nalm6: IncuCyte killing and cytokine ELISA; assay type: cell-based
Procedure: In this example, CD19.28 CAR T cells were cultured in regular complete RPMI media until day 4, and then the cells were split between 11 mM glucose-(CTR) or 11 mM inosine-(INO) containing media (unless stated otherwise). A: Annexin 5 staining was performed at day 17 post-activation. Representative histograms of n=3 donors are shown. B: Surface CD19.28 CAR expression at day 14 post-activation. C: MFI of CAR molecules on CD19.28z CAR T cell surface at day 14 post activation. D: Ratio of CD4+vs CD8+CD19.28 CAR T cells at day 14 post-activation. E: CD19.28z CAR T cells were co-cultured with cells of the Nalm6 tumor line (1:8 E: T) for 75 hrs in an IncuCyte assay. […] Representative donor of n=3 is shown. F: Control media was replaced by INO+ media at the indicated day post activation. At day 14, cells were stimulated with Nalm6 tumor line, and IL-2 and IFNγ secretion was assessed by ELISA. […] For A and B, P values were determined by paired two-tailed t-tests. […] For F and G, P values were determined by unpaired two-tailed t-tests.
In this example, CD19.28 CAR T cells were generated using a retroviral vector and at day 4 post-activation, the cells were split between 11 mM glucose-(CTR) or 11 mM inosine-(INO) containing media (unless stated otherwise). Tested first was whether the absence of glucose in the culture media has a negative effect on the viability of CAR T cells.
Tumor antigen density is one of the most important factors affecting the efficacy of CAR T immunotherapy. Therefore, assessed next was whether growing CAR T cells in inosine-containing media improves their effector function against low antigen expressing tumor lines.

CAR T cells = assay: Seahorse analysis, ATP5 expression and ATP levels of CAR T cells manufactured in inosine; assay type: cell-based
Procedure: A and B: Seahorse analysis of CAR T cells at day 11 post-activation. Representative graphs of n=1-2 donors are shown. P values were determined by unpaired two-tailed t-tests. C: Flow analysis of ATP5 expression by CD8+ CAR T cells at day 17 post-activation. Representative histograms of two donors are shown. D: ATP levels in CAR T cells at day 14 post activation. Results from two independent experiments are shown (n=2).
Studied next was the effect of inosine on CAR T cell metabolism. […] Furthermore, the total amount of ATP generated by CAR T cells grown in the presence of inosine was increased (FIG. 4D).

[1] = system: Nalm6-GD2+ leukemia cells; assay: Nalm6-GD2+ leukemia in NSG mice treated with HA CAR T cells; assay type: in vivo; conditions: 2×10^6 HA CAR T cells IV day 3, expanded in inosine vs regular media
Procedure: A: NSG mice were injected IV with 1×10^6 Nalm6 leukemia cells at day 0, and then 0.2×10^6 CD19.28 CAR T cells, generated in regular or inosine-supplemented media were given IV on day 3. Tumor progression was monitored using bioluminescent imaging. Scales are normalized for all time points. Data are mean+s.e.m. of n=5 mice per group. […] B: NSG mice were injected IV with 1×10^6 Nalm6-GD2+ leukemia cells at day 0, and then 2×10^6 HA CAR T cells, generated in regular or inosine-containing media were given IV on day 3. Tumor progression was monitored using bioluminescent imaging. Scales are normalized for all time points. Data are mean+s.e.m. of n=5 mice per group. […] C: Overall survival. N=5 mice per group. Survival curves were compared using the log-rank Mantel-Cox test. D: NSG mice were injected intramuscular with 1×10^6 143b tumor cells. 4 days later the mice were injected with 1×10^7 Her2, Her2 grown in INO+ media or mock T cells IV. Tumor growth was monitored by caliper measurements. […] N=3-5 mice per group. Survival curves were compared using the log-rank Mantel-Cox test.
In this example, the in vivo anti-tumor potency of CAR T cells manufactured in the presence or absence of inosine was assessed. […] Three days post tumor injection, mice were evaluated and normalized for engraftment using bioluminescent imaging. […]

HA-CAR T cells [2] = assay: Expansion of HA-CAR T cells in media with glucose and/or inosine; inosine dose response; assay type: cell-based, human
GD2.bbz-CAR T cells = GD2.bbz-CAR T cells manufactured in GMP-grade AIM 5 media with increasing inosine; assay type: cell-based
Source text: FIG. 8B: Expansion rate of GD2.bbz-CAR T cells between day 3 and day 6 post-activation of CAR T cells grown in AIM 5 containing indicated concentration of inosine. N=4 donors from independent experiments.
FIG. 8C: Viability of GD2.bbz-CAR T cells cultured for 4 days in AIM 5 containing indicated concentration of inosine at day 6 post-activation. N=4 donors from independent experiments.
FIG. 8D: GD2.bbz-CAR T cells grown in media containing indicated inosine concentration between day 3 and day 8 post-activation and stimulated with 143b or Nalm6-GD2 tumor. IFNγ secretion after 24 hrs of co-culture was measured. Data are mean+s.d. of duplicate or triplicate wells. Representative of n=2 donors shown.
Next, to test this therapeutic window in the clinical context, GD2-CAR T cells were manufactured and determined to have anti-tumor activity in diffuse midline gliomas (DMGs) using GMP-grade AIM 5 media with increasing concentrations of INO (FIG. 8A).

HA-CAR T cells [3] = assay: Mass cytometry single cell metabolic regulome profiling; assay type: cell-based, human; conditions: CyTOF, day 14
Source text: INO cultured cells also expressed higher levels of enzymes associated with glutaminolysis (GLS, GPT2), and TCA activity (IDH1, IDH2, CS, SDHA), consistent with INO induced glutamine catabolismdriving TCA through anapleurosis (FIG. 11D). Proteins of complex I and complex V of the electron transport chain were also elevated, consistent with higher oxidative phosphorylation.

HA-CAR T cells [4] = system: HA-CAR T cells
Source text: 9D: Levels of expression of indicated purinergic pathway gene transcripts from bulk RNA samples. Data are mean+/−s.e.m. from n=3 donors. P values determined by paired two-tailed t-tests. *, P<0.05; **, P<0.01; ***, P<0.001; **** P<0.0001. […] Histograms of representative donor (Left) and pooled data from n=8 donors shown (Right). P values determined by paired two-tailed t-tests. *, P<0.05; **, P<0.01; ***, P<0.001; ****, P<0.0001. 9F: UMAP plots of day 14 CD8+ (top) and CD4+ (bottom) HA-or HA-INO-CAR T cells analyzed using CyTOF. 9,000 or maximum of CD4+ CAR T cells from each condition from n=4 donors were organized by their combined expression of 5 exhaustion markers. Graphs represent median expression of indicated markers. P values determined by paired two-tailed t-tests. *, P<0.05; **, P<0.01; ***, P<0.001; ****, P<0.0001. 9G: Histograms showing GD2 antigen expressed by Nalm6-GD2 and 143b tumor lines with corresponding number of molecules per cell. 9H: Co-cultures of HA, HA-ADA-O/E-or HA grown in INO stimulated with Nalm6-GD2 (1:8 E: T) at day 14 post-activation. Tumor GFP fluorescence intensity was normalized to the first time point (duplicate or triplicate wells). Representative donor of n=2 donor shown. P values determined by two-way ANOVA with Dunnett's multiple comparisons test. *, P<0.05; **, P<0.01; ***, P<0.001; ****, P<0.0001. […] Error bars represent mean+SD of triplicate wells from one representative donor of n=1-2 donors. P values determined by unpaired two-tailed t-tests. *, P<0.05; **, P<0.01; ***, P<0.001; ****, P<0.0001. 9J: IL-2 release after 24h of CD19.4-1BBz-CAR T cells stimulated with Nalm6 tumor line alone or in co-culture with HA-or HA-INO-CAR T cells at 1:1:1 ratio. Data are mean+SD from triplicate wells. N=1 donor. *, P<0.05; **, P<0.01; *** P<0.001; ****, P<0.0001. […] Data polled from n=5 donors from independent experiments. P values determined by paired two-tailed t-tests *, P<0.05; **, P<0.01; ***, P<0.001; ****, P<0.0001. […] Tumor GFP fluorescence intensity was normalized to the first time point (duplicate or triplicate wells). Representative donor of n=3 donor shown. P values determined by two-way ANOVA with Dunnett's multiple comparisons test. *, P<0.05; **, P<0.01; ***, P<0.001; ****, P<0.0001. 9N: Co-cultures of CD19, or CD19-CAR T cells grown in INO media starting from indicated days post-activation and Nalm6-GD2 (1:10 E: T) starting at day 15 post-activation. Tumor GFP fluorescence intensity was normalized to the first time point (duplicate or triplicate wells). Representative donor of n=2 donor shown. P values determined by two-way ANOVA with Dunnett's multiple comparisons test. *, P<0.05; **, P<0.01; ***, P<0.001; ****, P<0.0001. […] Data are mean±s.e.m. of n=3-5 donors. P values determined by paired two-tailed t-tests. *, P<0.05; **, P<0.01; ***, P<0.001; ****, P<0.0001.

## O=c1[nH]cnc2c1ncn2[C@@H]1O[C@H](CO)[C@@H](O)[C@H]1O [inosine, Inosine]
Nalm6 tumor line; Nalm6, 1:8 E:T, 75 hrs IncuCyte, cells expanded in 11 mM inosine vs glucose
  tumor killing: increased tumor killing
Nalm6 tumor line; Nalm6 expressing medium or low levels of surface CD19, day 14
  secretion of IFNγ: significantly increased secretion
Nalm6 tumor line; stimulated with Nalm6 at day 14, ELISA
  effector cytokine secretion (IL-2, IFNγ): increased
CAR T cells; CD8+ CAR T cells, day 17, flow
  ATP5 (Complex V) protein expression: increased level
CAR T cells; Seahorse, day 11
  bioenergetic profile: shifting it towards oxidative phosphorylation
CAR T cells; Seahorse, day 11 post-activation
  extracellular acidification rate (ECAR): significantly decreased
CAR T cells; day 14
  total amount of ATP generated: increased
[1]
  survival: improved
  tumor control: improved
HA-CAR T cells [2]; 0-11 mM INO in RPMI containing 11 mM glucose, without a plateau
  dose response on diminished proliferation, increased CD62L expression and increased IFNγ production: clear dose dependent effect
HA-CAR T cells [2]; day 4 to day 10, 11 mM INO in presence or absence of 11 mM glucose, listed as INO
  expansion of HA-CAR T cells: diminished expansion; also recorded: significantly reduced expansion
GD2.bbz-CAR T cells; AIM 5 with increasing INO, day 3 to day 6
  cell proliferation: significantly decreased cell proliferation
GD2.bbz-CAR T cells; AIM 5 with increasing INO, day 6
  CAR T cell viability: no significant changes
GD2.bbz-CAR T cells; challenged with 143b (low GD2) or Nalm6-GD2 (high GD2), 24 hrs
  secretion of IFNγ: increase in secretion of IFNγ
HA-CAR T cells [3]
  enzymes associated with glutaminolysis (GLS, GPT2) and TCA activity (IDH1, IDH2, CS, SDHA): higher levels
  expression of CAT2: increased
  proteins of complex I and complex V of the electron transport chain: elevated
HA-CAR T cells [4]; HA vs HA-INO
  expression of ornithine decarboxylase (ODC), spermidine synthase and elF5A: increased expression
  genes associated with TCR signaling: diminished expression
HA-CAR T cells [4]; HA vs HA-INO, day 14
  genes associated with glutaminolysis and polyamine synthesis: increased expression
  genes associated with glycolysis and glucose driven metabolism (PFKP, ALDOA, GAPDH, PGK, ENO1): downregulation
HA-CAR T cells [4]; bulk RNA-seq PCA
  variance in principal component analysis attributed to INO exposure: 41.3%
